For orientation: pKa means the negative logarithm of the acid dissociation constant.

Where a SMILES comes first, the peptide text is derived from it.

The values below come from the pKa sets of Baltruschat and Czodrowski (2020).

Regarding `O=C1CCC[C@H]2[C@H]3C[C@@H](CN12)[C@@H]1CCCCN1C3`, the pKa (basic group) stood at 9.4. In turn, `Nc1ccc2ncncc2c1` gave a pKa (basic group) of 3.29. `CC1(C)CN1`: where the note is “basic group”, the pKa amounted to 5.37. Turning to `CC(C)c1ccccc1N`, where the note is “basic group”, the pKa came to 4.42. In the case of `C[n+]1cnccc1[O-]`, the pKa (basic group) is 1.84. For the setting “acidic group”, `COc1ccc(NC=S)cc1` came in with a pKa of 11.7. The same measure, in the same setting: then `O=C(O)c1cccc(=O)cc1`, with 3.2. Consider `O=S(=O)(Nc1nccs1)c1ccccc1`, for which the pKa (acidic group) was determined as 5.73.

The molecule `OCCN(CCO)Cc1nc2ccccc2[nH]1` showed a pKa (basic group) of 5.93. The molecule `CC(O)CN(C)CC(C)O` (centres undefined) had a pKa (basic group) of 8.7. In the case of `C=CC(CC(C)(C)C)c1ccc2cccnc2c1O` (centres undefined), the pKa runs as follows: (acidic group) 9.8; (basic group) 4.94. In the case of `Nc1cc([O-])ccc1O`, the pKa (acidic group) came to 11.2. The molecule `O=C1CCC(C2CCCCC2)C(=O)C1` (centres undefined) gave a pKa (acidic group) of 5.5. On to `C[Si](C)(C)CNC1CCCCC1`, for which, under “basic group”, the pKa was determined as 11. On to `O=C1CCC([O-])=C1O`, for which the pKa (acidic group) came out at 12.9. On the same count and under the same terms, the figure for `COc1ccc(C(=O)c2cc[nH]n2)cc1` is 12.1. Regarding `CCC(C)NC(C#N)=C(C#N)C#N` (centres undefined), the pKa (acidic group) amounted to 6.35.

Consider `CCOC(=O)c1cnc2ccccc2c1OCC`, for which the pKa (basic group) came to 3.88. Consider `CCCNc1ccccc1`, for which the pKa (basic group) amounted to 5.12. For the molecule `C=CCC(C)(CN(CC)CC)OC(C)=O` (centres undefined), the pKa (basic group) is 9.85.

With `c1ccc2c(c1)N1CCN2CC1`, the pKa (basic group) was 5.65. Same read-out and setting: then `CN(C)c1nc2c(s1)CCCC2`, with 6.16.

Molecule `O=C1NC(=O)c2cc(Cl)ccc21` showed a pKa (acidic group) of 9.48. Regarding `CC(C)CC(N)C(=O)NC(CC(N)=O)C(=O)O` (stereo not drawn) (H-Leu-Asn-OH; configuration not given here), for the setting “acidic group”, the pKa came out at 8.23. For the setting “basic group”, `CCN(CC)Cc1c(C)cccc1O` showed a pKa of 8.65. In turn, `O=Cc1c(O)cccc1Cl` registered a pKa (acidic group) of 8.26. Under “acidic group”, `Cc1ccc(NC(=S)c2ccccc2)cc1` had a pKa of 10.8. Regarding `O=c1ccc2cc(O)c(O)cc2o1`, the pKa (acidic group) stood at 7.63. As to `O/N=C\C=C\c1ccccc1`, the pKa (acidic group) is 10.9. As for `CC(C)(N)C#N`, the pKa (basic group) worked out at 5.3.

With `Cc1cc(C(C)C)cc(C)c1O`, for the setting “acidic group”, the pKa came to 10.9. Under “basic group”, `Nc1c(Br)cccc1Br` gave a pKa of 0.36.

As to `CC(C)CC(N)C(N)=O` (centres undefined), the pKa (acidic group) came to 8. Turning to `Cc1cc2c(cc1N)Sc1cc(N(C)C)ccc1N2`, the pKa (basic group) was 5.41.

Where the note is “acidic group”, `O/N=C/c1ccco1` showed a pKa of 10.8. As to `CC(N)CCc1ccccc1` (centres undefined), under “basic group”, the pKa was 9.78.

The molecule `O/C(=C/[n+]1ccccc1)c1ccccc1` came in with a pKa (acidic group) of 4.8.

For the molecule `COc1ccccn1`, the pKa (basic group) came out at 3.34. In the case of `Cc1ccc(C(=S)Nc2ccc(Cl)cc2)cc1`, where the note is “acidic group”, the pKa was 10.8. Consider `c1cc(-c2cc[nH+]cc2)ccn1`, for which the pKa (basic group) turned out to be 3.17.

Turning to `[O-]c1ccc(Cl)cc1CN1CCCCC1`, the pKa (basic group) was found to be 11.8. In turn, `COc1cc(S(C)=O)ccc1-c1cn2cccnc2n1` (centres undefined) showed a pKa (basic group) of 3.7. Take `N#CC(CCC(=O)O)c1ccccc1` (centres undefined): for the setting “acidic group”, the pKa was found to be 4.4. With `[O-]c1ccnc2nccnc12`, the pKa (basic group) was determined as 8.78. Consider `C[C@H](O)[C@H]1CC[C@H]2[C@@H]3CC[C@H]4C[C@H](N)CC[C@]4(C)[C@H]3CC[C@]12C`, for which the pKa (basic group) was 9.28. Regarding `c1cnccn1`, under “basic group”, the pKa came out at 0.57.

Take `O=C1Cc2c1ccc(O)c2Br`: the pKa (acidic group) was determined as 5.75. The molecule `Cc1cc(C)nc([N-]S(=O)(=O)c2ccc(O)cc2)n1` registered a pKa (acidic group) of 9.16.

The molecule `C[C@@H](CC(C#N)(c1ccccc1)c1ccccc1)N(C)C` displayed a pKa (basic group) of 8.31. Turning to `Cc1ccc2ncccc2c1`, the pKa (basic group) is 5.1. On to `NCCCCC#CC#CCCC(=O)[O-]`, for which the pKa (basic group) is 10.5.

As for `CC1=CSC2=NCCCN12`, the pKa (basic group) was 10.3.

In the case of `CN(C)c1ccncn1`, the pKa (basic group) stood at 6.35.

`CC(=O)S`: the pKa (acidic group) came to 3.71.

Where the note is “basic group”, `CCC(C)(C)Nc1ccccc1` came in with a pKa of 6.55. Regarding `CCCCN1CCCC1`, under “basic group”, the pKa turned out to be 10.4. The molecule `C/C=C/C#CC(=O)O` gave a pKa (acidic group) of 2.67. With `CCOCCn1c(CN2CC[NH+](CCCCn3cc(C(=O)O)cn3)CC2)[nH+]c2ccccc21`, the pKa (acidic group) was determined as 3.8. The molecule `N#CC(C#N)=C(N)C(C#N)C#N` returned a pKa (acidic group) of 2.58. Molecule `CC(C)(S)CN` had a pKa (acidic group) of 11 and a pKa (basic group) of 8.48. In turn, `Cc1cc(O)ccc1O` returned a pKa (acidic group) of 10.1. Take `N[C@H]1C[C@@H]2CCCC[C@H]2C[C@@H]1[NH3+]`: for the setting “basic group”, the pKa was 6.97. `CCCCCN` showed a pKa (basic group) of 10.7. Take `NCCc1ccc(Cl)cc1`: where the note is “basic group”, the pKa came to 9.66.

Where the note is “acidic group”, `O=C(O)c1ccc2[nH]ccc2c1` returned a pKa of 4.1.

Turning to `O=C(O)C#COc1ccccc1`, the pKa (acidic group) came out at 3.09. For the molecule `Clc1ccc2[nH]nnc2c1`, the pKa (acidic group) was found to be 7.7. With `COC(=O)c1ccc(NC=S)cc1`, the pKa (acidic group) worked out at 10.9. Molecule `CNC(C)=S` gave a pKa (basic group) of -1.9. Regarding `[NH3+]CCc1cccc(O)c1`, the pKa (acidic group) was found to be 9.27. On to `[O-]c1c(Cl)cc(Cl)c(Cl)c1CN1CCCCC1`, for which the pKa (basic group) turned out to be 10.3. Consider `O=[N+]([O-])c1ccncc1`, for which the pKa (basic group) turned out to be 1.86. As to `Cc1ccc2cccc(C)c2n1`, the pKa (basic group) turned out to be 4.1. `Nc1ncccc1O` showed a pKa (acidic group) of 9.5. Same read-out and setting: then `CC(C)=NNS(C)(=O)=O`, with 8.5. Under “basic group”, `CNNC` showed a pKa of 5.2. For the molecule `Nc1ccc(S(=O)(=O)Nc2cccc[n+]2[O-])cc1`, the pKa (acidic group) was 5.2. In the case of `Oc1ccc2ncccc2c1`, the pKa reads like this: (acidic group) 8.82; (basic group) 5.26. In turn, `COc1ccc(OC)c2c1nc(CO)n2C` had a pKa (basic group) of 5.24.

On to `C=CC(O)OCC(C)O` (centres undefined), for which, for the setting “acidic group”, the pKa worked out at 5.5.

`Cc1cc(O)cc(C)[o+]1` displayed a pKa (acidic group) of 0.38.

`N[C@H]1CCCCC[C@@H]1O` returned a pKa (basic group) of 9.35. For the molecule `SCC[NH2+]CCc1ccccc1`, the pKa (acidic group) is 7.85. Consider `CNc1nc(C)nc2nc[nH]c12`, for which, under “basic group”, the pKa worked out at 5.08. Consider `c1ccc2scnc2c1`, for which the pKa (basic group) was 1.38. `C1CN2CCCN2C1` displayed a pKa (basic group) of 7.95. `Nc1cccc2c(O)cccc12`: the pKa was 10.3 (acidic group) and 4.15 (basic group). Consider `O=[N+]([O-])c1ccc2ccc(O)cc2c1`, for which the pKa (acidic group) came to 8.81. The molecule `Cc1cc([C@@H](N)CO)c(O)c([C@@H](N)CO)c1` showed a pKa (basic group) of 9. Under “acidic group”, `O=C1/C(=N/O)C=Cc2ccccc21` came in with a pKa of 7.52. For the molecule `Cc1nc(C(=O)[O-])ccc1O`, the pKa is, setting by setting: (acidic group) 9.49; (basic group) 5.13. Take `CCSC(C)=N`: the pKa (basic group) turned out to be 6.9. As to `COc1ccc(O)cc1`, the pKa (acidic group) came out at 10.2.

As for `O=C(O)C[NH+](CC(=O)O)Cc1cc([N+](=O)[O-])ccc1O`, the pKa (acidic group) amounted to 2.4. `Nc1c2ccccc2[nH+]c2c(O)cccc12` gave a pKa (acidic group) of 7.05. `Cc1ccc(Cl)cc1/C(=N/CCC[NH+](C)C)c1ccccc1` returned a pKa (basic group) of 3.87. `CCN(CC)Cc1cc(OC)ccc1O`: the pKa stood at 10.9 (acidic group) and 8.62 (basic group). `CCCNN` came in with a pKa (basic group) of 7.92. Where the note is “basic group”, `C=Cc1ccncc1` showed a pKa of 5.62. `O=C(O)CCC(=O)c1ccc(-c2ccccc2)cc1` returned a pKa (acidic group) of 4.46. Turning to `CSc1cnc2ccccc2c1`, the pKa (basic group) worked out at 3.88. For the setting “basic group”, `NCC(O)c1ccccc1` (centres undefined) registered a pKa of 8.94. For `Nc1nccc([O-])n1`, for the setting “basic group”, the pKa was 9.42.
